Laboratory results: patent US12364696B2, “Treatment of autoimmune disease” (priority 2019, dated 2025)
Read-outs that look alike come from different tables or passages of the source.

Tests used:
[1] = test system: male patients with alopecia areata of the beard (BAA)
[2] = test system: folliculitis decalvans and tufted folliculitis; assay: Additional case studies (data not shown); type: in vivo, human; conditions: sublingual
[3] = oral tofacitinib; cited from earlier work
[4] = test system: patients with alopecia areata; conditions: oral tofacitinib 5 mg twice daily for 6 months; cited from earlier work
[5] = test system: patients with lichen planopilaris and frontal fibrosing alopecia; conditions: for Patient-reported response: ceased treatment
[6] = BAA subtype multiple patches, % of n = 45
[7] = BAA subtype solitary patch, % of n = 45
[8] = BAA subtype total beard loss, % of n = 45
[9] = all patients, n = 45 (21 oral, 24 sublingual)
[10] = degree of scalp hair regrowth Complete
[11] = degree of scalp hair regrowth Complete, % of n = 45
[12] = degree of scalp hair regrowth None
[13] = degree of scalp hair regrowth None, % of n = 45
[14] = degree of scalp hair regrowth Partial
[15] = degree of scalp hair regrowth Partial, % of n = 45

Q: Which “Duration of treatment after which complete beard regrowth was achieved (mean)” value ([1]; 10 complete beard responders) does the source give for `C[C@@H]1CCN(C(=O)CC#N)C[C@@H]1N(C)c1ncnc2[nH]ccc12` [tofacitinib] here?
A: Its value is 16.0 months.

Q: And the “Duration of treatment after which complete beard regrowth was achieved (range)” value ([1]; 10 complete beard responders)?
A: Its value is 5.0-28.0 months.

Q: What about the “Men with complete beard regrowth who also achieved complete scalp hair regrowth” value ([1]; 10 complete beard responders) of the same compound?
A: The value was 60%.

Q: And the “Degree of beard regrowth Complete, number of patients” value ([1]; BAA subtype multiple patches)?
A: Its value is 7.

Q: And the “Degree of beard regrowth None, number of patients” value ([1]; BAA subtype multiple patches)?
A: Its value is 8.

Q: What about the “Degree of beard regrowth Partial, number of patients” value ([1]; BAA subtype multiple patches) of the same compound?
A: The value was 9.

Q: And the “Degree of beard regrowth Complete, % of patients” value [1, 6]?
A: Its value is 15.6%.

Q: What about the “Degree of beard regrowth None, % of patients” value [1, 6] of the same compound?
A: The value was 17.8%.

Q: And the “Degree of beard regrowth Partial, % of patients” value [1, 6]?
A: The value was 20.0%.

Q: What about the “Degree of beard regrowth Complete, number of patients” value ([1]; BAA subtype solitary patch) of the same compound?
A: The value was 0.

Q: What about the “Degree of beard regrowth None, number of patients” value ([1]; BAA subtype solitary patch) of the same compound?
A: The value was 2.

Q: And the “Degree of beard regrowth Partial, number of patients” value ([1]; BAA subtype solitary patch)?
A: Its value is 0.

Q: And the “Degree of beard regrowth Complete, % of patients” value [1, 7]?
A: The value was 0.0%.

Q: What about the “Degree of beard regrowth None, % of patients” value [1, 7] of the same compound?
A: Its value is 4.5%.

Q: What about the “Degree of beard regrowth Partial, % of patients” value [1, 7] of the same compound?
A: The value was 0.0%.

Q: And the “Degree of beard regrowth Complete, number of patients” value ([1]; BAA subtype total beard loss)?
A: Its value is 3.

Q: And the “Degree of beard regrowth None, number of patients” value ([1]; BAA subtype total beard loss)?
A: The value was 6.

Q: And the “Degree of beard regrowth Partial, number of patients” value ([1]; BAA subtype total beard loss)?
A: Its value is 10.

Q: And the “Degree of beard regrowth Complete, % of patients” value [1, 8]?
A: The value was 6.7%.

Q: And the “Degree of beard regrowth None, % of patients” value [1, 8]?
A: The value was 13.3%.

Q: What about the “Degree of beard regrowth Partial, % of patients” value [1, 8] of the same compound?
A: The value was 22.2%.

Q: What about the “Degree of beard regrowth Complete, % of patients” value [1, 9] of the same compound?
A: Its value is 22.2%.

Q: And the “Degree of beard regrowth Complete, number of patients” value [1, 9]?
A: The value was “Ten”.

Q: What about the “Degree of beard regrowth None, % of patients” value [1, 9] of the same compound?
A: Its value is 35.6%.

Q: And the “Degree of beard regrowth None, number of patients” value [1, 9]?
A: Its value is 16.

Q: And the “Degree of beard regrowth Partial, % of patients” value [1, 9]?
A: Its value is 42.2%.

Q: And the “Degree of beard regrowth Partial, number of patients” value [1, 9]?
A: The value was 19.

Q: And the “Degree of beard regrowth Complete, number of patients” value ([1]; all patients, n = 45 (21 oral, 24 sublingual), listed as oral tofacitinib)?
A: Its value is 10.

Q: And the “Degree of beard regrowth Complete, number of patients” value [1, 10]?
A: Its value is 6.

Q: And the “Degree of beard regrowth None, number of patients” value [1, 10]?
A: The value was 0.

Q: And the “Degree of beard regrowth Partial, number of patients” value [1, 10]?
A: The value was 1.

Q: What about the “Degree of beard regrowth Complete, % of patients” value [1, 11] of the same compound?
A: The value was 13.3%.

Q: And the “Degree of beard regrowth None, % of patients” value [1, 11]?
A: Its value is 0.0%.

Q: And the “Degree of beard regrowth Partial, % of patients” value [1, 11]?
A: The value was 2.2%.

Q: What about the “Degree of beard regrowth Complete, number of patients” value [1, 12] of the same compound?
A: Its value is 1.

Q: What about the “Degree of beard regrowth None, number of patients” value [1, 12] of the same compound?
A: Its value is 14.

Q: What about the “Degree of beard regrowth Partial, number of patients” value [1, 12] of the same compound?
A: The value was 3.

Q: And the “Degree of beard regrowth Complete, % of patients” value [1, 13]?
A: The value was 2.2%.

Q: What about the “Degree of beard regrowth None, % of patients” value [1, 13] of the same compound?
A: Its value is 31.1%.

Q: What about the “Degree of beard regrowth Partial, % of patients” value [1, 13] of the same compound?
A: Its value is 6.7%.

Q: What about the “Degree of beard regrowth Complete, number of patients” value [1, 14] of the same compound?
A: Its value is 3.

Q: And the “Degree of beard regrowth None, number of patients” value [1, 14]?
A: Its value is 2.

Q: And the “Degree of beard regrowth Partial, number of patients” value [1, 14]?
A: Its value is 15.

Q: And the “Degree of beard regrowth Complete, % of patients” value [1, 15]?
A: The value was 6.7%.

Q: And the “Degree of beard regrowth None, % of patients” value [1, 15]?
A: Its value is 4.5%.

Q: What about the “Degree of beard regrowth Partial, % of patients” value [1, 15] of the same compound?
A: The value was 33.3%.

Q: What about the “Patients with mild adverse events (upper respiratory infections, elevated liver transaminases, fatigue, acne)” value ([1]; n = 45, oral or sublingual) of the same compound?
A: The value was 10.

Q: What about the Serious adverse events ([1]; n = 45, oral or sublingual) of the same compound?
A: The Serious adverse events was “no serious adverse events”.

Q: And the “SALT score post-tofacitinib, Mean ± SD” value ([1]; n = 45, oral or sublingual, pre-tofacitinib 62.0 ± 38.9)?
A: Its value is 41.7 ± 38.5.

Q: And the “SALT score post-tofacitinib, Median (Range)” value ([1]; n = 45, oral or sublingual, pre-tofacitinib 69.0 (2.0-100.0))?
A: Its value is 29.0 (0.0-100.0).

Q: And the “Complete response, number of patients” value ([1]; oral, N = 21, beard)?
A: Its value is 0.

Q: And the “No response, number of patients” value ([1]; oral, N = 21, beard)?
A: Its value is 9.

Q: What about the “Partial response, number of patients” value ([1]; oral, N = 21, beard) of the same compound?
A: Its value is 12.

Q: What about the “Complete response, number of patients” value ([1]; sublingual, n = 24, beard) of the same compound?
A: The value was 10.

Q: What about the “No response, number of patients” value ([1]; sublingual, n = 24, beard) of the same compound?
A: The value was 7.

Q: And the “Partial response, number of patients” value ([1]; sublingual, n = 24, beard)?
A: The value was 7.

Q: And the “Usefulness for treatment of folliculitis decalvans and tufted folliculitis” value [2]?
A: Its value is “useful”.

Q: What about the Reported elimination half-life [3] of the same compound?
A: The Reported elimination half-life was 3 h.

Q: What about the Response rate [4] of the same compound?
A: Its Response rate is 64.9%.

Q: And the Side effects ([5]; Patient 1)?
A: The Side effects was “No side effects”.

Q: What about the “Activity of lichen planopilaris” value ([5]; Patient 1, sublingual 5-10 mg daily, July 2019 to February 2020, with concurrent medications) of the same compound?
A: The value was “controlled”.

Q: And the Side effects ([5]; Patient 2)?
A: The Side effects was “No side effects”.

Q: What about the “Symptoms of lichen planopilaris” value ([5]; Patient 2, up to 5 mg in the morning and 2.5 mg at night, with concurrent medications) of the same compound?
A: Its value is “symptom-free”.

Q: What about the Patient-reported response ([5]; Patient 3, lichen planopilaris, 2 mg twice daily increased to 7.5 mg) of the same compound?
A: Its Patient-reported response is “not happy with the response”.

Q: What about the Patient-reported response ([5]; Patient 4, lichen planopilaris/frontal fibrosing alopecia, 2.5 mg twice daily for 12 months) of the same compound?
A: The Patient-reported response was “not happy with the response”.

Q: What about the “Effect on symptoms of lichen planopilaris and frontal fibrosing alopecia” value ([5]; series of case studies, sublingual) of the same compound?
A: The value was “demonstrated activity at reducing the symptoms”.
